Measurements: patent US20030177531A1, “Regulating metabolism by modifying the level of trehalose-6-phosphate by inhibiting endogenous trehalase levels” (Mogen International N.V., priority 1997, published 2003)

How the values were obtained:
[1] = test system: α- or β-glycohydrolase activity; settings: except for trehalase; cited from earlier work
trehalase activity = test: Trehalose accumulation in potato microtubers induced on medium with Validamycin A; type: cell-based, Solanum tuberosum cv. Kardal; settings: for Trehalose (% fresh weight), +Validamycin A: 10^−3M Validamycin A
Protocol: Stem segments of in vitro potato plants harbouring an auxiliary meristem were transferred to micro-tuber inducing medium. Micro-tuber inducing medium contains 1×MS-salts supplemented with R3 vitamins, 0.5 g/l MES (final pH=5.8, adjusted with KOH) and solidified with 8 g/l Daichin agar, 60 g/l sucrose and 2.5 mg/l kinetin. After 3 to 5 weeks of growth in the dark at 24° C., micro-tubers were formed.
Validamycin A was isolated from Solacol, a commercial agricultural formulation (Takeda Chem. Indust., Tokyo) as described by Kendall et al. (1990) Phytochemistry 29, 2525. The procedure involves ion-exchange chromatography (QAE-Sephadex A-25 (Pharmacia), bed vol. 10 ml, equilibration buffer 0.2 mM Na-Pi pH 7) from a 3% agricultural formulation of Solacol. Loading 1 ml of Solacol on the column and eluting with water in 7 fractions, practically all Validamycin was recovered in fraction 4. Based on a 100% recovery, using this procedure, the concentration of Validamycin A was adjusted to 1.10^−3M in MS-medium, for use in trehalose accumulation tests. Alternatively, Validamycin A and B may be purified directly from Streptomyces hygroscopicus var. limoneus, as described by Iwasa et al. (1971) J. Antibiot. 24, 119, the content of which is incorporated herein by reference.
Carbohydrates were determined quantitatively by anion exchange chromatography with pulsed electrochemical detection. Extracts were prepared by extracting homogenized frozen material with 80% EtOH. After extraction for 15 minutes at room temperature, the soluble fraction is evaporated and dissolved in distilled water. Samples (25 μl) were analyzed on a Dionex DX-300 liquid chromatograph equipped with a 4×250 mm Dionex 35391 carbopac PA-1 column and a 4×50 mm Dionex 43096 carbopac PA-1 precolumn. Elution was with 100 mM NaOH at 1 ml/min followed by a NaAc gradient. Sugars were detected with a pulsed electrochemical detector (Dionex, PED). Commercially available carbohydrates (Sigma) were used as a standard.
Transgenic potato plants were generated harbouring the otsA gene driven by the potato tuber-specific patatin promoter (pMOG845). Potato Solanum tuberosum cv. Kardal tuber discs were transformed with Agrobacterium tumefaciens EHA105 harbouring the binary vector pMOG845. […] All plants obtained were phenotypically indistinguishable from wild type plants. […] The presence of small amounts of trehalose in wild-type plants indicates the presence of a functional trehalose biosynthetic pathway.

OCC1=C[C@H](N[C@H]2C[C@H](CO)[C@@H](O[C@@H]3O[C@H](CO)[C@@H](O)[C@H](O)[C@H]3O)[C@H](O)[C@H]2O)[C@H](O)[C@@H](O)[C@@H]1O [Validamycin A, 1,5,6-trideoxy-3-o-β-D-glucopyranosyl-5-(hydroxymethyl)-1-[[4,5,6-trihydroxy-3-(hydroxymenthyl)-2-cyclohexen-1-yl]amino]-D-chiro-inositol]
Inhibition of α- or β-glycohydrolase activity other than trehalase [1]: does not significantly inhibit | Trehalose level in microtubers versus medium without Validamycin A (trehalase activity; microtuber-inducing medium with 10^−3M Validamycin A, transgenic pMOG845 and wild-type plants): elevated levels of trehalose | Trehalose (% fresh weight), +Validamycin A (trehalase activity; microtubers of transgenic line 845-2 (pat-TPS)): 0.016 % fresh weight | Trehalose (% fresh weight), +Validamycin A (trehalase activity; microtubers of transgenic line 845-8 (pat-TPS)): 0.051 % fresh weight | Trehalose (% fresh weight), +Validamycin A (trehalase activity; microtubers of transgenic line 845-11 (pat-TPS)): 0.015 % fresh weight | Trehalose (% fresh weight), +Validamycin A (trehalase activity; microtubers of transgenic line 845-13 (pat-TPS)): 0.011 % fresh weight | Trehalose (% fresh weight), +Validamycin A (trehalase activity; microtubers of transgenic line 845-22 (pat-TPS)): 0.112 % fresh weight | Trehalose (% fresh weight), +Validamycin A (trehalase activity; microtubers of transgenic line 845-25 (pat-TPS)): 0.002 % fresh weight | Trehalose (% fresh weight), +Validamycin A (trehalase activity; microtubers of transgenic line 845-28 (pat-TPS)): 0.109 % fresh weight | Trehalose (% fresh weight), +Validamycin A (trehalase activity; microtubers of wild-type Kardal): 0.001 % fresh weight
